Results reported in patent US10899776B2, “Antiviral and antibacteria agents based on quaternary ammonium compound complexed with boric acid and its derivatives” (B-Organic Films Corp, priority 2015, dated 2021).
Where two headings read alike, the source gives them in different places.

Test system: L. vannamei shrimp gene expression
Procedure: RNA is extracted using TRIzol® and the Qiagen RNeasy® Mini Kit (Qiagen, Germantown, Md., USA). Shrimp samples immersed in TRIzol® are placed in the FastPrep®-24 (MP Biomedicals LLC, Solon, Ohio, USA) and homogenized during 4° C. for 40 s pulses at 6 m/s. A volume of 200 μL of chloroform is added to a 1.5 mL RNase free tube containing the homogenate material and inverted 15 times. Samples are incubated at room temperature for 3 min before centrifuged at 8000 g for 15 min at 4° C. using the Eppendorf centrifuge. The supernatant is carefully transferred into a new 1.5 mL RNase free tube and the extraction continued following the manufacturer's protocol.
The quality and quantity of RNA are determined by the NanoDrop™ 1000 spectrophotometer (Thermo Fisher Scientific, Waltham, Mass., USA) and Bio-Rad™ (Bio-Rad, Hercules, Calif., USA) using denatured gel electrophoresis with formaldehyde and buffer MOPS 1× (Sambrook, J. 1989. in: «Molecular cloning—a laboratory manual, 2nd ed». J. Sambrook, E. F. Fritsch, T. Maniatis Eds. Cold Spring Harbor, N.Y.: Cold Spring Harbor Laboratory Press).
Microarrays are designed based on publically available gene sequences and ESTs determined from cDNA libraries representing multiple tissues of male and female L. vannamei shrimp, and/or of various physiological conditions.
In total, a length of oligonucleotides about of 61440-mer is included in this study: 39592 shrimp ESTs; 1216 Quality control spots; 112 positive control Alexa-555 dye; 80 positive control Alexa 647 dye; 20320 Unigenes; 16 astringent positive control alexa-555: 16 astringent positive control Alexa-647 dye and 88 negative control empty are submitted to the MYcroarray (University of Michigan, Chemical Engineering Department) for printing on aminosaline glass slides. The exposure and reference sample RNAs are adjusted to final volume 19 μL with oligo d(T) (2 μg/μL) and random primers. (1 μg/μL) in water molecular biology grade. The samples are incubated at 70° C. for 10 min and are then chilled in ice. The samples are mixed finally with 5× Reaction Buffer Superscript II kit (Invitrogen, Life technologies, Carlsbad Calif., USA): 25 mM MgCl2; aminoallyl-dNTP with dUTP (3:1); 0.1 M DTT and 200 U/μL Superscript II Reverse Transcriptase. The mix is incubated at 25° C. for 10 min and then at 42° C. for 2 hours. RNA hydrolysis is made with 5 μL of NaOH 1 N and 1 μL of EDTA 0.5 M. The mixture is incubated at 65° C. for 10 min, and then added 25 μL of HEPES 1 M at pH 7.5. […] The aminoallyl-DNA (aa-DNA) is purified using QIAquick™ (Qiagen, Duesseldorf, Germany). A volume of 7 μL of sodium acetate 3 M and 400 μL binding buffer supplied by the Kit are added. The mixture is allowed to stand 5 min according to the manufacturer's instructions for purification. The eluted aa-DNA is concentrated in a Vacufuge™ until dry and is resuspended in 4.5 μL of sodium bicarbonate 100 mM (pH 9.0). The reaction is conducted in darkness at room temperature overnight. The aa-DNA labeled is purified using QIAquick™ (Qiagen, Duesseldorf, Germany) and eluted with 50 uL water. The aa-DNA labeled is quantified in a Nanodrop™ 1000 spectrophotometer (Thermo Fisher Scientific, Waltham, Mass., USA).
After completely drying in a Vacufuge concentrator, the aa-DNA labeled is resuspended in hybridation mixture containing: ˜0.1 optical density units of aa-DNA labeled from each sample; SSC (5×) buffer; 0.1% SDS; 1× buffer TE. The hybridation mixture is desaturated at 94° C. for 5 min and finally at 65° C. for 30 s. The mixture is placed in the microarray slide previously placed in a chamber for microarray hybridization and covered using a RNase-free plastic coverslip (Hybrislip, Schleicher & Schuell, HS40—40×22 mm; HS22—22×22 mm via Thomas Scientific). The hybridation chamber is incubated at 42° C. overnight.
The slide is placed in a 50 mL conical tube for the first wash and a volume of 50 mL of SSC (1×) buffer and of SDS 0.05% are added for 1 min.

[1] = 2-Down regulated genes, feed 5 mg/g
[2] = 2-Up regulated genes, feed 5 mg/g
[3] = 2-fold Down-regulated genes (treated) versus all genes
[4] = 2-fold Up-regulated genes (treated) versus all genes
[5] = diets supplemented with the complex
[6] = feed 5 mg/g, 14 days, of 262 2-fold Down-regulated genes
[7] = feed 5 mg/g, 14 days, of 583 2-fold Up-regulated genes
[8] = treated vs control shrimp, 57,193 spots available to analysis

## C[N+](C)(C)CCOB1OB2OB(O1)OB1OB(O2)O1.[Cl-] [choline/pentaborate complex]
[1]
  # Enzymes, Aminoacyl-tRNA biosynthesis: 3
  # Enzymes, Ascorbate and aldarate metabolism: 2
  # Enzymes, Glycolysis/Gluconeogenesis: 3
  # Enzymes, Oxidative phosphorylation: 4
  # Enzymes, Pentose and glucuronate interconversions: 2
  # Enzymes, Pentose phosphate pathway: 5
  # Enzymes, Phenylalanine metabolism: 1
  # Enzymes, Phenylpropanoid biosynthesis: 1
  # Enzymes, Purine metabolism: 3
  # Enzymes, Starch and sucrose metabolism: 2
  # Genes, Aminoacyl-tRNA biosynthesis: 3
  # Genes, Ascorbate and aldarate metabolism: 3
  # Genes, Glycolysis/Gluconeogenesis: 3
  # Genes, Oxidative phosphorylation: 6
  # Genes, Pentose and glucuronate interconversions: 3
  # Genes, Pentose phosphate pathway: 5
  # Genes, Phenylalanine metabolism: 3
  # Genes, Phenylpropanoid biosynthesis: 3
  # Genes, Purine metabolism: 4
  # Genes, Starch and sucrose metabolism: 5
[2]
  # Enzymes, Amino sugar and nucleotide Sugar metabolism: 7
  # Enzymes, Cytochrome P450: 3
  # Enzymes, Glutathione metabolism: 5
  # Enzymes, Glycolysis: 8
  # Enzymes, Oxidative phosphorylation: 6
  # Enzymes, Pentose phosphate pathway: 4
  # Enzymes, Purine metabolism: 7
  # Enzymes, Pyruvate metabolism: 6
  # Enzymes, Valine, leucine and isoleucine degradation: 6
  # Genes, Amino sugar and nucleotide Sugar metabolism: 8
  # Genes, Cytochrome P450: 6
  # Genes, Glutathione metabolism: 7
  # Genes, Glycolysis: 8
  # Genes, Oxidative phosphorylation: 18
  # Genes, Pentose phosphate pathway: 5
  # Genes, Purine metabolism: 14
  # Genes, Pyruvate metabolism: 6
  # Genes, Valine, leucine and isoleucine degradation: 6
[3]
  Fisher's exact test GO term Extracellular region part: 5.69%
  Fisher's exact test GO term Gas transport: 2.03%
  Fisher's exact test GO term Oxygen transporter activity: 2.03%
  Fisher's exact test GO term Photoreceptor cell differentiation: 2.43%
  Fisher's exact test GO term Regulation of protein metabolic process: 10.56%
  Fisher's exact test GO term Starch metabolic process: 2.03%
  Fisher's exact test GO term Sucrose metabolic process: 2.03%
  Fisher's exact test GO term Toll-like Receptor for signaling pathway: 1.62%
  Fisher's exact test GO term Translation factor activity, nucleic acid binding: 4.47%
  Fisher's exact test GO term Transporter activity: 10.56%
  Fisher's exact test GO term extracellular region: 9.75%
  Fisher's exact test GO term extracellular space: 4.87%
[4]
  Fisher's exact test GO term Actin Cytoskeleton: 4.62%
  Fisher's exact test GO term Calcium Ion Binding: 4.25%
  Fisher's exact test GO term Cytoskeletal Protein Binding: 5.55%
  Fisher's exact test GO term Hydrogen Transport: 4.81%
  Fisher's exact test GO term Ion Transport: 8.15%
  Fisher's exact test GO term Monosaccharide Metabolic Process: 4.10%
  Fisher's exact test GO term Monovalent Inorganic Cation Transport: 5.92%
  Fisher's exact test GO term Positive Regulation of Biosynthetic Process: 3.70%
  Fisher's exact test GO term Positive Regulation of Cellular Biosynthetic Process: 3.70%
  Fisher's exact test GO term Proton Transport: 4.81%
2-fold Up-regulated, GO term 0006955, feed 5 mg/g, 14 days
  number of immune related genes that are over-expressed: at least 33
[5]
  number of modulated genes associated to Biogenesis: 59
  number of modulated genes associated to Biological regulation: 73
  number of modulated genes associated to Cellular process: 159
  number of modulated genes associated to Developmental process: 40
  number of modulated genes associated to Localization: 66
  number of modulated genes associated to Metabolic process: 166
  number of modulated genes associated to Response to stimuli: 43
  number of modulated genes associated to Signaling: 26
Feed 5 mg/g, 14 days
  number of 2-fold Up-regulated genes: 583
  number of genes with a 2-fold Down-regulated expression: 262
[6]
  Down-regulated genes in biological process Biological Regulation: 9%
  Down-regulated genes in biological process Cellular Component Organization or Biogenesis: 7%
  Down-regulated genes in biological process Cellular Process: 20%
  Down-regulated genes in biological process Developmental Process: 5%
  Down-regulated genes in biological process Localization: 8%
  Down-regulated genes in biological process Metabolic Process: 20%
  Down-regulated genes in biological process Multicellular Process: 6%
  Down-regulated genes in biological process Response to Stimulus: 5%
  Down-regulated genes in biological process Signaling: 3%
  Down-regulated genes in biological process Single-organism Process: 17%
  Down-regulated genes with molecular function Binding: 44%
  Down-regulated genes with molecular function Catalytic Activity: 40%
  Down-regulated genes with molecular function Enzyme Regulator Activity: 3%
  Down-regulated genes with molecular function Structural Molecule Activity: 4%
  Down-regulated genes with molecular function Transporter Activity: 9%
[7]
  Up-regulated genes in biological process Biological Regulation: 9%
  Up-regulated genes in biological process Cellular Component Organization or Biogenesis: 7%
  Up-regulated genes in biological process Cellular Processes: 20%
  Up-regulated genes in biological process Developmental Process: 6%
  Up-regulated genes in biological process Localization: 7%
  Up-regulated genes in biological process Metabolic Process: 18%
  Up-regulated genes in biological process Multicellular Organismal Process: 6%
  Up-regulated genes in biological process Response to Stimulus: 6%
  Up-regulated genes in biological process Signaling: 4%
  Up-regulated genes in biological process Single-organism Process: 17%
  Up-regulated genes with molecular function Binding Activity: 44%
  Up-regulated genes with molecular function Catalytic Activity: 43%
  Up-regulated genes with molecular function Structural Molecule Activity: 6%
  Up-regulated genes with molecular function Transporter Activity: 7%
[8]
  Number of spots, Expression Levels (Score) 1 to 1.5: 3,662
  Number of spots, Expression Levels (Score) 1.5 to 2: 1,984
  Number of spots, Expression Levels (Score) <−2: 1,434
  Number of spots, Expression Levels (Score) >2: 1,650
  Number of spots, Expression Levels (Score) −1.5 to −1: 3,221
  Number of spots, Expression Levels (Score) −1.5 to −2: 1,259
  Number of spots, No regulated genes (−1 to 1): 43,950
